Reference: the supplement of paper PMC13207355

What was measured:
Details in all cases: exposure time: 72 h
E57 [1] = patient-derived glioblastoma stem cells of mesenchymal subtype; test: surviving fraction (nuclei count normalised to DMSO); higher = more cells surviving (less toxic)
E34 [2] = patient-derived glioblastoma stem cells of proneural subtype; test: as above
E21 [3] = patient-derived glioblastoma stem cells of mesenchymal subtype; test: as above
E13 [4] = patient-derived glioblastoma stem cells of classical subtype; test: as above
E28 [5] = patient-derived glioblastoma stem cells of classical subtype; test: as above
E31 [6] = patient-derived glioblastoma stem cells of proneural subtype; test: as above
FT3469 [7] = normal neural stem cell line; test: as above
E57 [8] = test: phenotypic distance (Euclidean, principal components) from DMSO controls (arbitrary units); higher = stronger morphological change
E34 [9] = test: as above
E21 [10] = test: as above
E13 [11] = test: as above
E28 [12] = test: as above
E31 [13] = test: as above
FT3469 [14] = test: as above
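Wherever phenotypic distance (Euclidean, principal components) from DMSO controls is given: cell Painting imaging in 384-well plates, CellProfiler features reduced to at least 20 principal components, Euclidean distance versus same-plate DMSO vehicle wells (0.1% v/v), median over six images per well.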
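Wherever surviving fraction (nuclei count normalised to DMSO) is given: nuclei counted by high-content imaging of Hoechst-stained cells in laminin-coated 384-well plates, relative to 0.1% DMSO vehicle wells, with staurosporine as cell-death control.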

CCC(=O)OCC(=O)[C@@]1(OC(=O)CC)[C@H](C)C[C@H]2[C@H]3[C@H]([C@@H](O)C[C@@]21C)[C@@]1(C)C=CC(=O)C=C1C[C@H]3Cl [Alclometasone dipropionate]
Details | phenotypic distance | surviving fraction
E13 [4], 4.1 nM | – | 0.975
E13 [4], 12.3 nM | – | 0.888
E13 [4], 37 nM | – | 0.926
E13 [4], 111.1 nM | – | 0.859
E13 [4], 333.3 nM | – | 0.951
E13 [4], 1000 nM | – | 0.974
E13 [4], 3000 nM | – | 0.671
E13 [11], 4.1 nM | 1.28 | –
E13 [11], 12.3 nM | 1.12 | –
E13 [11], 37 nM | 1.27 | –
E13 [11], 111.1 nM | 1.15 | –
E13 [11], 333.3 nM | 1.25 | –
E13 [11], 1000 nM | 1.24 | –
E13 [11], 3000 nM | 1.47 | –
E21 [3], 4.1 nM | – | 1.32
E21 [3], 12.3 nM | – | 1.26
E21 [3], 37 nM | – | 1.21
E21 [3], 111.1 nM | – | 1.39
E21 [3], 333.3 nM | – | 1.2
E21 [3], 1000 nM | – | 1.2
E21 [3], 3000 nM | – | 1.1
E21 [10], 4.1 nM | 1.94 | –
E21 [10], 12.3 nM | 2.13 | –
E21 [10], 37 nM | 2.45 | –
E21 [10], 111.1 nM | 3.04 | –
E21 [10], 333.3 nM | 2.13 | –
E21 [10], 1000 nM | 2.23 | –
E21 [10], 3000 nM | 2.27 | –
E28 [5], 4.1 nM | – | 1.25
E28 [5], 12.3 nM | – | 0.854
E28 [5], 37 nM | – | 1.17
E28 [5], 111.1 nM | – | 0.928
E28 [5], 333.3 nM | – | 1.08
E28 [5], 1000 nM | – | 1.38
E28 [5], 3000 nM | – | 0.939
E28 [12], 4.1 nM | 0.573 | –
E28 [12], 12.3 nM | 0.69 | –
E28 [12], 37 nM | 0.865 | –
E28 [12], 111.1 nM | 0.821 | –
E28 [12], 333.3 nM | 0.465 | –
E28 [12], 1000 nM | 1.06 | –
E28 [12], 3000 nM | 0.433 | –
E31 [6], 4.1 nM | – | 1.3
E31 [6], 12.3 nM | – | 1.46
E31 [6], 37 nM | – | 1.4
E31 [6], 111.1 nM | – | 1.41
E31 [6], 333.3 nM | – | 1.12
E31 [6], 1000 nM | – | 1.19
E31 [6], 3000 nM | – | 1.23
E31 [13], 4.1 nM | 2.71 | –
E31 [13], 12.3 nM | 4.05 | –
E31 [13], 37 nM | 4.11 | –
E31 [13], 111.1 nM | 3.84 | –
E31 [13], 333.3 nM | 2.94 | –
E31 [13], 1000 nM | 3.4 | –
E31 [13], 3000 nM | 3.3 | –
E34 [2], 4.1 nM | – | 1.1
E34 [2], 12.3 nM | – | 1.15
E34 [2], 37 nM | – | 1.1
E34 [2], 111.1 nM | – | 1.1
E34 [2], 333.3 nM | – | 0.991
E34 [2], 1000 nM | – | 1.06
E34 [2], 3000 nM | – | 0.984
E34 [9], 4.1 nM | 0.626 | –
E34 [9], 12.3 nM | 1.12 | –
E34 [9], 37 nM | 0.662 | –
E34 [9], 111.1 nM | 1.42 | –
E34 [9], 333.3 nM | 1.36 | –
E34 [9], 1000 nM | 1.38 | –
E34 [9], 3000 nM | 1.48 | –
E57 [1], 4.1 nM | – | 1.12
E57 [1], 12.3 nM | – | 1.18
E57 [1], 37 nM | – | 1.1
E57 [1], 111.1 nM | – | 1.07
E57 [1], 333.3 nM | – | 1.11
E57 [1], 1000 nM | – | 1.14
E57 [1], 3000 nM | – | 1.13
E57 [8], 4.1 nM | 1.91 | –
E57 [8], 12.3 nM | 2.63 | –
E57 [8], 37 nM | 2.58 | –
E57 [8], 111.1 nM | 2.62 | –
E57 [8], 333.3 nM | 3.15 | –
E57 [8], 1000 nM | 3.25 | –
E57 [8], 3000 nM | 2.81 | –
FT3469 [7], 4.1 nM | – | 1.16
FT3469 [7], 12.3 nM | – | 1.29
FT3469 [7], 37 nM | – | 1.33
FT3469 [7], 111.1 nM | – | 1.15
FT3469 [7], 333.3 nM | – | 1.07
FT3469 [7], 1000 nM | – | 1.19
FT3469 [7], 3000 nM | – | 1.02
FT3469 [14], 4.1 nM | 1.11 | –
FT3469 [14], 12.3 nM | 1.62 | –
FT3469 [14], 37 nM | 1.67 | –
FT3469 [14], 111.1 nM | 2.12 | –
FT3469 [14], 333.3 nM | 1.8 | –
FT3469 [14], 1000 nM | 1.92 | –
FT3469 [14], 3000 nM | 1.23 | –
